“Also recorded” adds a separate entry of the source.
Assays:
[1] = amifostine therapy, serious side-effect; cited from earlier work
[2] = tested on: Radiation Induced Oral Mucositis; test: Clinical study of compound A with external beam radiotherapy in squamous cell carcinoma of oral cavity, oropharynx and hypopharynx; format: in vivo
Description: The compound A and external beam radiotherapy (EBRT) were administered for six weeks i.e., 2 cycles of compound A and […] of radiation. One, three weeks (21 days) cycle of combination regimen comprised of dosing compound A for days 1 to 5 and EBRT on days 1 to 5, 8 to 12 and 15 to 19. The combination treatment schedule is depicted in the following table:
A] Dose of compound A: In the Phase I part of the clinical trial, 11 patients were enrolled and 100 mg/m^2/day of compound A was determined to be the maximum tolerated dose (MTD) as two dose limiting toxicities occurred at the higher dose of 140 mg/m^2/day. Additional 12 subjects were enrolled at the MTD dose level to confirm the safety and tolerability of that dose. B] Procedure: Compound A (100 mg/m^2/day) in 5% dextrose (200 mL) was administered to 19 patients as intravenous infusion over 30 minutes on days 1 to 5 of a 21 day cycle. After about 1.5 hours of infusion of compound A, the patients received EBRT (2 Grays per day for 5 days) to the affected body parts (primary tumor site and involved cervical lymph nodes) through linear accelerator. Patients continued to receive EBRT (2 Grays per day) on days 8-12 and 15-19. On days 6, 7, 13 and 14 patients were not infused with compound A, neither were exposed to radiotherapy.
The procedure was repeated for cycle 2.
At investigator's discretion, some patients were given additional radiation of up to 10 additional Grays (2 Grays per day for 5 days) commencing immediately after the completion of the prescribed radiation dose of 60 Grays. Total radiation dose for spinal cord was less than 48 Grays.
The Common Terminology Criteria for Adverse Events (version 3) (version 3, Publish Date: Aug. 9, 2006) laid down by the National Cancer Institute for oral mucositis in radiation therapy was followed.

[3] = tested on: Radiation Induced Oral Mucositis in Hamsters; test: Radiation induced oral mucositis in hamsters (left buccal pouch, single 40 Gy dose on Day 0); format: in vivo, Male LVG Syrian Golden Hamsters; settings: for maximum mean mucositis score: score scale 0-5
Excerpt: Male LVG Syrian Golden Hamsters, 5 to 6 weeks old, weighing 87.7 to 97.1 g (Charles River Laboratories, US) at the commencement of the study, were used. An ear punch was used to number the animals individually. Approximately 8-10 animals were housed per cage. The animals were acclimatized for at least 3 days before experimentation. During this period, they were observed daily to ensure that the animals are in good condition. The animals that presented poor condition were rejected.
Animals were randomly and prospectively divided into 5 groups: • i) Group 1: Animals (n=8) were administered with 5% w/v dextrose monohydrate intraperitoneally from Day 0 to Day 4 or from Day 0 to Day 9. • ii) Group 2: Animals (n=10) were administered with 10 mg/kg of compound A intraperitoneally from Day 0 to Day 4. • iii) Group 3: Animals (n=10) were administered with 20 mg/kg of compound A intraperitoneally from Day 0 to Day 4. • iv) Group 4: Animals (n=10) administered with 10 mg/kg of compound A intraperitoneally from Day 0 to Day 9. • v) Group 5: Animals (n=10) administered with 20 mg/kg of compound A intraperitoneally from day Day 0 to Day 9.
Mucositis induction: The animals were anesthetized and the left buccal pouch was everted, fixed and isolated using a lead shield. The left buccal pouch mucosa of the animal was exposed to radiation at a rate of 2.0 Gy/minute. A single dose of radiation (40 Gy/dose) was administered to all animals on Day 0. Radiation was generated with 160 kilovolt potential source at a focal distance of 21 cm, hardened with a 0.35 mm Al filtration system. Animals of Group 2 to 5 were treated with compound A as per the schedule detailed above one hour prior to the radiation. The volume administered to all the above Groups was 0.2 mL/100 g.
For evaluation of mucositis, the animals were anesthetized with an inhalation anesthetic and the left buccal pouch everted. Mucositis was scored visually using the following criteria for evaluation:
Weight change and survival were also measured throughout the study.
The significance of differences observed between the different treatment groups was evaluated by comparing the days with mucositis scores ≧3 and […] between groups using a chi-squared analysis.
An analysis of the severity of mucositis was performed using Mann-Whitney rank sum analysis to compare the visual mucositis scores for each treatment group to the vehicle control on each day of the analysis.
The percentage of animals in each group with ulcerative mucositis at each day of the study was evaluated.

[4] = 19 evaluable patients, 100 mg/m^2/day i.v. plus EBRT, CTCAE version 3

**Q.** Which “hypotension, share of patients” value [1] does the source give for `NCCCNCCSP(=O)(O)O` [amifostine, Amifostine] here?
**A.** 62%

**Q.** With `CN1CC[C@@H](c2c(O)cc(O)c3c(=O)cc(-c4ccccc4Cl)oc23)[C@@H]1CO.Cl` [Compound A, (+)-trans-2-(2-Chlorophenyl)-5,7-dihydroxy-8-(2-hydroxymethyl-1-methyl-pyrrolidin-3-yl)-chromen-4-one hydrochloride] as the molecule, how does the “radioprotective effect, compared with historical rates of serious RIM (Grade 3 and above, Trotti et al.)” value ([2]; 19 evaluable patients, 100 mg/m^2/day i.v. plus EBRT) read?
**A.** has radioprotective effects

**Q.** And the “events of mucositis reported (all grades)” value ([2]; 19 evaluable patients, 100 mg/m^2/day i.v. plus EBRT 2 Grays per day, 2 cycles, CTCAE version 3)?
**A.** five

**Q.** And the “events of mild mucositis (Grade 1)” value [2, 4]?
**A.** one

**Q.** And the “events of moderate mucositis (Grade 2)” value [2, 4]?
**A.** one

**Q.** And the “events of moderate stomatitis (Grade 2)” value [2, 4]?
**A.** two

**Q.** What about the “events of severe mucositis (Grade 3)” value [2, 4] of the same molecule?
**A.** one

**Q.** What about the “maximum tolerated dose (MTD)” value ([2]; Phase I part, intravenous infusion days 1 to 5 of a 21 day cycle, with EBRT) of the same molecule?
**A.** 100 mg/m^2/day

**Q.** What about the dose limiting toxicities ([2]; human, in vivo) of the same molecule?
**A.** two

**Q.** And the “percent of days and number of days with ulcerative mucositis (score ≧3) compared to vehicle control” value ([3]; 10 mg/kg from Days 0 to 9)?
**A.** significantly reduced

**Q.** What about the “maximum mean mucositis score” value ([3]; Group 2: 10 mg/kg intraperitoneally Day 0 to Day 4, maximum on Day 18) of the same molecule?
**A.** 3.0

**Q.** What about the “maximum mean mucositis score” value ([3]; Group 3: 20 mg/kg intraperitoneally Day 0 to Day 4, maximum on Day 16) of the same molecule?
**A.** 3.0

**Q.** And the “mucositis severity (visual mucositis scores vs vehicle control, Mann-Whitney rank sum)” value ([3]; Group 4: 10 mg/kg i.p. Day 0 to Day 9, Day 18 (p=0.073) and Day 28 (p=0.064))?
**A.** strong trend of lower scores

**Q.** And the “mucositis severity (visual mucositis scores vs vehicle control, Mann-Whitney rank sum)” value ([3]; Group 4: 10 mg/kg i.p. Day 0 to Day 9, Day 24 (p=0.002) and Day 26 (p=0.024), hydrochloride, 10 mg/kg)?
**A.** significant reductions in mucositis; also recorded: significant improvement in mucositis scores

**Q.** And the “reduction of percentage of animals with ulcerative mucositis (score ≧3) compared to Group 1” value (shortened to “reduction of percentage of animals”) ([3]; Group 4: 10 mg/kg i.p. Day 0 to Day 9, Days 24 to 28, first of three values)?
**A.** 72.7%

**Q.** What about the “reduction of percentage of animals” value ([3]; Group 4: 10 mg/kg i.p. Day 0 to Day 9, Days 24 to 28, second of three values) of the same molecule?
**A.** 83.8

**Q.** And the “reduction of percentage of animals” value ([3]; Group 4: 10 mg/kg i.p. Day 0 to Day 9, Days 24 to 28, third of three values)?
**A.** 77.8%

**Q.** And the “percentage of animal days with a mucositis score of ≧3” value ([3]; Group 4: 10 mg/kg i.p. Day 0 to Day 9, entire study duration, vehicle control 63.0%)?
**A.** 43.5%

**Q.** And the “maximum mean mucositis score” value ([3]; Group 4: 10 mg/kg intraperitoneally Day 0 to Day 9, maximum on Day 16)?
**A.** 3.0

**Q.** What about the “maximum mean mucositis score” value ([3]; Group 5: 20 mg/kg intraperitoneally Day 0 to Day 9, maximum on Day 16) of the same molecule?
**A.** 3.1

**Q.** And the “percent body weight change among groups” value ([3]; Groups 1 to 5, one-way ANOVA)?
**A.** no significant difference

**Q.** And the “percentage of animal days with a mucositis score of ≧3 compared to vehicle control” value ([3]; other 3 treatment groups (Groups 2, 3 and 5), chi-squared analysis)?
**A.** not significantly different

Reference: patent US20170071908A1, “PYRROLIDINE- SUBSTITUTED FLAVONE DERIVATIVES FOR PREVENTION OR TREATMENT OF ORAL MUCOSITIS” (priority 2012, published 2017)
